{"source": "paper PMC10275482", "about": "(ACS Omega, 2023)", "key": {"SARS-CoV-2 [1]": {"tested_on": "SARS-CoV-2", "details": "cited from earlier work; for EC50: read-out: EC50 in Vero cells"}, "SARS-Cov-2 PL^pro": {"molecular_target": "SARS-Cov-2 PL^pro (Severe acute respiratory syndrome coronavirus 2, UniProt P0DTD1)", "experiment": "biochemical"}, "[2]": {"tested_on": "SARS-CoV-2 (isolate USA WA1/2020)", "experiment": "microbe, parasite or virus in culture", "assay_type": "cell-based", "details": "Severe acute respiratory syndrome coronavirus 2, Calu-3, 48 h, read-out: IC50 (infection)"}, "SARS-CoV-2 [3]": {"tested_on": "SARS-CoV-2", "details": "Vero cells, cited from earlier work"}, "in vitro": {"experiment": "in vitro", "details": "human"}, "SARS-CoV-2 [4]": {"tested_on": "SARS-CoV-2", "details": "cited from earlier work"}, "SARS-CoV-2 [5]": {"tested_on": "SARS-CoV-2", "details": "read-out: A549-ACE2 IC50; A549-ACE2 cells; cited from earlier work"}, "PL^pro": {"tested_on": "PL^pro", "details": "read-out: PL^pro IC50; cited from earlier work"}, "SARS-Cov-2 M^pro": {"molecular_target": "SARS-Cov-2 M^pro (Severe acute respiratory syndrome coronavirus 2, UniProt P0DTD1)", "experiment": "biochemical"}}, "note": "Like-named read-outs stand apart in the source and are kept apart here.", "data": [{"smiles": "CC(C)(C)NC(=O)N[C@H](C(=O)N1C[C@H]2[C@@H]([C@H]1C(=O)NC(CC1CCC1)C(=O)C(N)=O)C2(C)C)C(C)(C)C", "note": "(some centres unmarked) [boceprevir]", "values": [{"measurement": "EC50", "setting": "SARS-CoV-2 [1]", "value": 1.31, "unit": "µM"}]}, {"smiles": "COc1cc(Nc2c(C#N)cnc3cc(OCCCN4CCN(C)CC4)c(OC)cc23)c(Cl)cc1Cl", "note": "[bosutinib]", "values": [{"measurement": "IC50", "setting": "SARS-Cov-2 PL^pro", "value": "4.23 ± 0.28", "unit": "µM"}, {"measurement": "IC50", "setting": "[2]", "value": 5.26, "unit": "µM"}, {"measurement": "cell toxicity in Calu-3 cells (in words)", "setting": "Calu-3 cells", "value": "demonstrated cell toxicity"}, {"measurement": "SI (anti-SARS-CoV-2 entry activity)", "setting": "SARS-CoV-2 [3]", "value": 7.08}, {"measurement": "EC50", "setting": "SARS-CoV-2 [3]; read-out: anti-SARS-CoV-2 entry activity EC50", "value": 2.45, "unit": "µM"}, {"measurement": "CC50", "setting": "in vitro", "value": 6.06, "unit": "µM"}]}, {"smiles": "C[N+](C)(C)CCOP(=O)(O)OP(=O)([O-])OC[C@H]1O[C@@H](n2ccc(N)nc2=O)[C@H](O)[C@@H]1O", "note": "[citicoline]", "values": [{"measurement": "IC50", "setting": "SARS-Cov-2 PL^pro", "value": "1.35 ± 0.27", "unit": "µM"}]}, {"smiles": "C[C@@H](Oc1cc(-c2cnn(C3CCNCC3)c2)cnc1N)c1c(Cl)ccc(F)c1Cl", "note": "[crizotinib]", "values": [{"measurement": "IC50", "setting": "SARS-Cov-2 PL^pro", "value": "3.81 ± 0.04", "unit": "µM"}, {"measurement": "IC50", "setting": "[2]", "value": 16.3, "unit": "µM"}, {"measurement": "cell toxicity in Calu-3 cells (in words)", "setting": "Calu-3 cells", "value": "demonstrated cell toxicity"}, {"measurement": "CC50", "setting": "in vitro", "value": 5.09, "unit": "µM"}]}, {"smiles": "COc1cc2ncnc(Nc3ccc(F)c(Cl)c3)c2cc1NC(=O)/C=C/CN1CCCCC1", "note": "[dacomitinib]", "values": [{"measurement": "IC50", "setting": "SARS-Cov-2 PL^pro", "value": "3.33 ± 0.06", "unit": "µM"}, {"measurement": "IC50", "setting": "SARS-CoV-2 [4]; read-out: IC50 against SARS-CoV-2 in Calu-3 cells", "value": 0.04, "unit": "µM"}]}, {"smiles": "OCCN(CCO)c1nc(N2CCCCC2)c2nc(N(CCO)CCO)nc(N3CCCCC3)c2n1", "note": "[dipyridamole]", "values": [{"measurement": "EC50", "setting": "SARS-CoV-2 [1]", "value": "~0.1", "unit": "µM"}]}, {"smiles": "CCCCCc1c2c(cc(O)c1C(=O)O)OC(=O)c1c(cc(OC)cc1C(=O)CCCC)O2", "note": "[lobaric acid]", "values": [{"measurement": "IC50", "setting": "SARS-Cov-2 PL^pro", "value": "10 ± 1.11", "unit": "µM"}]}, {"smiles": "C=CC(=O)Nc1cccc(Oc2nc(Nc3ccc(N4CCN(C)CC4)cc3)nc3ccsc23)c1", "note": "[olmutinib]", "values": [{"measurement": "IC50", "setting": "SARS-Cov-2 PL^pro", "value": "0.54 ± 0.04", "unit": "µM"}, {"measurement": "IC50", "setting": "[2]", "value": 9.76, "unit": "µM"}, {"measurement": "cell toxicity in Calu-3 cells (in words)", "setting": "Calu-3 cells", "value": "demonstrated cell toxicity"}, {"measurement": "CC50", "setting": "in vitro", "value": 12.5, "unit": "µM"}]}, {"smiles": "COc1ccc2nc3cc(Cl)ccc3c(Nc3cc(CN4CCCC4)c(O)c(CN4CCCC4)c3)c2n1", "note": "[pyronaridine tetraphosphate]", "values": [{"measurement": "IC50", "setting": "SARS-CoV-2 [5]", "value": 0.23, "unit": "µM"}, {"measurement": "IC50", "setting": "PL^pro", "value": 1.8, "unit": "µM"}]}, {"smiles": "O=C(c1ccc(OCCN2CCCCC2)cc1)c1c(-c2ccc(O)cc2)sc2cc(O)ccc12", "note": "[raloxifene]", "values": [{"measurement": "IC50", "setting": "SARS-Cov-2 PL^pro", "value": "3.28 ± 0.29", "unit": "µM"}, {"measurement": "IC50", "setting": "SARS-CoV-2 [1]; read-out: IC50 against SARS-CoV-2 in Vero cells", "value": 3.9, "unit": "µM"}, {"measurement": "IC50", "setting": "SARS-CoV-2 [1]; read-out: IC50 in Vero, Vero cells", "value": 5.9, "unit": "µM"}, {"measurement": "SI in Calu-3 cells", "setting": "SARS-CoV-2 [4]", "value": 2.7}, {"measurement": "IC50", "setting": "SARS-CoV-2 [4]; read-out: IC50 in Calu-3 cells", "value": 9, "unit": "µM"}, {"measurement": "IC50", "setting": "SARS-Cov-2 M^pro", "value": "42.8 ± 6.7", "unit": "µM"}]}, {"smiles": "CC1(C)CCC2=C(O1)c1ccccc1C(=O)C2=O", "note": "[β-lapachone]", "values": [{"measurement": "IC50", "setting": "SARS-Cov-2 PL^pro", "value": "5.3 ± 0.29", "unit": "µM"}]}]}
